Data published in US9789111B2, “Casein kinase 1δ (CK 1δ) inhibitors” (Electrophoretics Limited, priority 2010, dated 2017).

Assays:
[1] = target: CK1g3 (Homo sapiens, UniProt Q9Y6M4); test: kinase inhibition assay panel; assay type: biochemical
[2] = target: GSK3b (Homo sapiens, UniProt P49841); test: kinase inhibition assay panel; assay type: biochemical
Procedure: (§1) Base Reaction buffer; 20 mM Hepes (pH 7.5), 10 mM MgCl2, 1 mM EGTA, 0.02% Brij35, 0.02 mg/ml BSA, 0.1 mM Na3VO4, 2 mM DTT, 1% DMSO
(§2) It should be noted that required cofactors are added individually to each kinase reaction.
(§3) • 1. Prepare indicated substrate in freshly prepared Base Reaction Buffer as described above • 2. Deliver any required cofactors to the substrate solution • 3. Deliver indicated kinase into the substrate solution and gently mix • 4. Deliver compounds in DMSO into the kinase reaction mixture • 5. Deliver ^33P-ATP (specific activity 0.01 μCi/μl final) into the reaction mixture to initiate the reaction • 6. Incubate kinase reaction for 120 min. at room temperature • 7. Reactions are spotted onto P81 ion exchange paper (Whatman #3698-915) • 8. Wash filters extensively in 0.75% Phosphoric acid Kinase Information: • CK1δ—Genbank Accession # NP_620693 • Recombinant human full-length construct. GST-tagged, expressed in insect cells. • Final concentration in assay=4 nM • Substrate: CK1tide • Substrate sequence: [KRRRAL[pS]VASLPGL] • Final substrate concentration in assay=20 μM • It should be noted that no additional cofactors are added to the reaction mixture.

[3] = target: HGK/MAP4K4 (Homo sapiens, UniProt O95819); test: kinase inhibition assay panel; assay type: biochemical
Procedure: as §1, §2, §3

[4] = target: JNK2 (Homo sapiens, UniProt P45984); test: kinase inhibition assay panel; assay type: biochemical
JNK2, sequence (P45984 whole entry, species assumed): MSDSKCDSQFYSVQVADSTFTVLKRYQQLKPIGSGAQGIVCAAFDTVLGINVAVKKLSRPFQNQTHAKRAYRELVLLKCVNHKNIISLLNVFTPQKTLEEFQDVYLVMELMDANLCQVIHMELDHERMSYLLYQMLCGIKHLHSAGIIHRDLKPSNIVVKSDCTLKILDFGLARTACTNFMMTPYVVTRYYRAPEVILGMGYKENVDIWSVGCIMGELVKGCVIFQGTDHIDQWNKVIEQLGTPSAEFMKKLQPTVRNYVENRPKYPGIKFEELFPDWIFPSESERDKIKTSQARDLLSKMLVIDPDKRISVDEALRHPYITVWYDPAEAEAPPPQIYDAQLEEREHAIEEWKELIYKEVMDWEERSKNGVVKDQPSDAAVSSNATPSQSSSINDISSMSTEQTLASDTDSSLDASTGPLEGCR
Procedure: as §1, §2, §3

[5] = target: KDR/VEGFR2 (Homo sapiens, UniProt P35968); test: kinase inhibition assay panel; assay type: biochemical
KDR/VEGFR2, sequence (P35968 20-1356): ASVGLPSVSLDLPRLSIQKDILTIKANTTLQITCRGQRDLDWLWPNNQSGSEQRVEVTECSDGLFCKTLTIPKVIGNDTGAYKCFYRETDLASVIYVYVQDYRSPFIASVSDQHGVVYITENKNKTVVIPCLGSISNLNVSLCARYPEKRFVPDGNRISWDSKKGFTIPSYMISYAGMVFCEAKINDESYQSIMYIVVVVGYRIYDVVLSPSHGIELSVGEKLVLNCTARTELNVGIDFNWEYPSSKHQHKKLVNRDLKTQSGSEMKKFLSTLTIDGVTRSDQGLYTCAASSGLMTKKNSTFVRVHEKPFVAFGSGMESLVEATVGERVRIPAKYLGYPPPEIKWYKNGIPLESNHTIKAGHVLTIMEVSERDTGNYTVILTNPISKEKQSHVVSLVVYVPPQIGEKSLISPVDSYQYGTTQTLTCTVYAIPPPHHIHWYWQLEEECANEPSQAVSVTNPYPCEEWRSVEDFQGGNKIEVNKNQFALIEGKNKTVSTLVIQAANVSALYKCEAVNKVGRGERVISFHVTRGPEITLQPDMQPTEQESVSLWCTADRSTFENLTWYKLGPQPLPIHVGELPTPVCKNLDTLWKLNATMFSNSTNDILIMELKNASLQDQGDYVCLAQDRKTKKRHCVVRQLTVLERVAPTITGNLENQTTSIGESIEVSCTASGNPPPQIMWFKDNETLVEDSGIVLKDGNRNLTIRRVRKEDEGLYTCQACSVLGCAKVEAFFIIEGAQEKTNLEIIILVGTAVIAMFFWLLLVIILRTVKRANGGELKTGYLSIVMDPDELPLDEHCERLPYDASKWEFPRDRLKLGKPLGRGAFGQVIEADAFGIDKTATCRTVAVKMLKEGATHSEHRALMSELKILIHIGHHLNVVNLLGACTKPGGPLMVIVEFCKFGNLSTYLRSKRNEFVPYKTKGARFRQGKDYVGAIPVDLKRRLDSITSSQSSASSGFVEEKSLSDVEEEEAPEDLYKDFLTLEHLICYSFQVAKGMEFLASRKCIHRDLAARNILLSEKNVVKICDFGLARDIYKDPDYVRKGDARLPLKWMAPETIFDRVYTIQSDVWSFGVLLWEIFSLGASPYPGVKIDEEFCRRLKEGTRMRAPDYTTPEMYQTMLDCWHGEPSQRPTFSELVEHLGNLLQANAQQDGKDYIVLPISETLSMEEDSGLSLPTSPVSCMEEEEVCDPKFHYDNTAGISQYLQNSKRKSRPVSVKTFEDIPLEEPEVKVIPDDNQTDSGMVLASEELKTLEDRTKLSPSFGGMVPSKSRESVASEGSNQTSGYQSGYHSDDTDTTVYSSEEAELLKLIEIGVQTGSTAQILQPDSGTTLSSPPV
Procedure: as §1, §2, §3

[6] = target: PKCb2 (Homo sapiens, UniProt P05771); test: kinase inhibition assay panel; assay type: biochemical
PKCb2, sequence (P05771 1-673 isoform P05771-2): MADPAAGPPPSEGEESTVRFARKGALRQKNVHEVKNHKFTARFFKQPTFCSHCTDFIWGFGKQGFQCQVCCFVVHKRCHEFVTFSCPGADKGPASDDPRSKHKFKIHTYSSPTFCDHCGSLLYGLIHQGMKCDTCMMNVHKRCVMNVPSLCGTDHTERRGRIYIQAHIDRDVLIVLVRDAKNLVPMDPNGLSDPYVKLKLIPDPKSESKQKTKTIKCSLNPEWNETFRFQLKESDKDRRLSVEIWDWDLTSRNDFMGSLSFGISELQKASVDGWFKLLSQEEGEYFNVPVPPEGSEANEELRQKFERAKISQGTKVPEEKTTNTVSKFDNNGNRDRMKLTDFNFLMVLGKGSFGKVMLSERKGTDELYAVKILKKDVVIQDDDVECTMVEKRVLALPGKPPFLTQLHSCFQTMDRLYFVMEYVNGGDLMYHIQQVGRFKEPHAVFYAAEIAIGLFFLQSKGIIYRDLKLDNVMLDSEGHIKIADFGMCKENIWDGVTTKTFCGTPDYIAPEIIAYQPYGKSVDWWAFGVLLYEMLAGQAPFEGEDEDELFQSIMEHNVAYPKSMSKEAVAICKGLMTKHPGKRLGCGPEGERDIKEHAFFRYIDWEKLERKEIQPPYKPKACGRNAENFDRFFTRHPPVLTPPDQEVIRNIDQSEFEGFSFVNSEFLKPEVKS
Procedure: as §1, §2, §3

[7] = target: PIM3 (Homo sapiens, UniProt Q86V86); test: kinase inhibition assay panel; assay type: biochemical
Procedure: as §1, §2, §3

[8] = target: LCK (Homo sapiens, UniProt P06239); test: kinase inhibition assay panel; assay type: biochemical
LCK, sequence (P06239 whole entry, species assumed): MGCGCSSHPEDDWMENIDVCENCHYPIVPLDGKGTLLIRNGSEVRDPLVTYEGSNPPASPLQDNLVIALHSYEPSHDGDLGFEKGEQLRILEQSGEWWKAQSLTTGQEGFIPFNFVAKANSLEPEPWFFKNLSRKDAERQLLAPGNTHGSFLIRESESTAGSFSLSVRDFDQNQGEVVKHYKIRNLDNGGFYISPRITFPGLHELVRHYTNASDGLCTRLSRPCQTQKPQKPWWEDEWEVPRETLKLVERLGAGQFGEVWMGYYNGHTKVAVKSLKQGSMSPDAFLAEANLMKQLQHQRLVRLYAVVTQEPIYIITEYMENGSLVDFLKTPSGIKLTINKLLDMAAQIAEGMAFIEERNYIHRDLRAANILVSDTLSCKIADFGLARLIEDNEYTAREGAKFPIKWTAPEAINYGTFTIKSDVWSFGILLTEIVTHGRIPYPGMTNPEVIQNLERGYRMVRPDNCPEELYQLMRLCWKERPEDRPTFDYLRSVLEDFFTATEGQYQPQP
Procedure: as §1, §2, §3

[9] = target: ABL2/ARG (Homo sapiens, UniProt P42684); test: kinase inhibition assay panel; assay type: biochemical
Procedure: as §1, §2, §3

[10] = target: c-SRC (Homo sapiens, UniProt P12931); test: kinase inhibition assay panel; assay type: biochemical
c-SRC, sequence (P12931 whole entry, species assumed): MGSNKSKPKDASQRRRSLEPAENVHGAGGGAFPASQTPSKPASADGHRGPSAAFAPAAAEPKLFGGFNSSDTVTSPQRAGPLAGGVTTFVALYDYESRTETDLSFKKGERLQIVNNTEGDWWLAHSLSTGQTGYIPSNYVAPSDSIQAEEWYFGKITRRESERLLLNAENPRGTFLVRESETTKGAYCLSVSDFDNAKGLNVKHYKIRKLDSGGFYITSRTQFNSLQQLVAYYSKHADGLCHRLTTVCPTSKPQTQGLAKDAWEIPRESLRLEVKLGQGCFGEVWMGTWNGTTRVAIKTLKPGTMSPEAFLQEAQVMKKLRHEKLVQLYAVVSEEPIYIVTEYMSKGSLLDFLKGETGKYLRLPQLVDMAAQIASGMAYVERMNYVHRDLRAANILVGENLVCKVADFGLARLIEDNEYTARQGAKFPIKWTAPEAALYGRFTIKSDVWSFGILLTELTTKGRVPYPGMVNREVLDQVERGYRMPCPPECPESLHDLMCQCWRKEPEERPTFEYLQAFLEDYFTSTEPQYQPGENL
Procedure: as §1, §2, §3

[11] = target: CDK5/p25 (Homo sapiens, UniProt Q00535); test: kinase inhibition assay panel; assay type: biochemical
CDK5/p25, sequence (Q00535 whole entry, species assumed): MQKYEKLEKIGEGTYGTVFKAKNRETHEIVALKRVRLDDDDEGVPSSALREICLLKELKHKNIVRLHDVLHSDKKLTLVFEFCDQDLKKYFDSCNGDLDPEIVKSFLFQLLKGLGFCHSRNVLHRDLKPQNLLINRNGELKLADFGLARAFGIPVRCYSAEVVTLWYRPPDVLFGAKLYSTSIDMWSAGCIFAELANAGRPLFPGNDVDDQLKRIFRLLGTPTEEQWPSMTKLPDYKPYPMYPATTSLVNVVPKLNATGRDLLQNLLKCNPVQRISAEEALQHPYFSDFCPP
CDK5/p25, sequence (Q15078 99-307 partner limits assumed, species assumed): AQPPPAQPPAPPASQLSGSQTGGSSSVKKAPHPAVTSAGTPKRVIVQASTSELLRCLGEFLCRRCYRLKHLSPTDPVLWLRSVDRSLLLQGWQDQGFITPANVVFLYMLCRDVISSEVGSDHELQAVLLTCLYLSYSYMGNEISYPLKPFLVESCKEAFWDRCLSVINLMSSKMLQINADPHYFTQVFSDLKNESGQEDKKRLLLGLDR
Procedure: as §1, §2, §3

[12] = system: SH-SY5Y-TMHT cells; test: Cell viability, MTT assay; assay type: cell-based, human; details: 6 h of treatment
Procedure: (§4) SH-SY5Y-TMHT cells are kept in culture medium (DMEM medium, 10% FCS, 1% NEAA, 1% L-Glutamine, 100 μg/ml Gentamycin, 300 μg/ml Geneticin G-418) for 2 days until 80-90% confluency. Cells are then differentiated in culture medium supplemented with 10 μM retinoic acid (RA) for 7 days changing medium every 2 to 3 days. Differentiated cells are seeded onto 6-well plates and 96-well plates at a cell density of 1.25×10^6 and 8×10^5 cells per well, respectively. On day 8 post-differentiation, the test compounds, reference compounds and vehicle control were added to the culture medium. After 6 h of compound exposure one plate of cells is subjected to a MTT assay to evaluate the effect of test and reference items on cell viability. Remaining wells are washed once with cold PBS and harvested in 300 μl RIPA-Buffer [50 mM Tris pH 7.4, 1% Nonident P40, 0.25% Na-deoxy-cholate, 150 mM NaCl, 1 mM EDTA, 1 μM NaF, 1 μM Na-ortho-vanadate, 80 mM Glycerophosphate, supplemented with freshly added protease (Calbiochem) and phosphatase (Sigma) inhibitor cocktail]. The cell suspension is transferred into a 1.5 ml tube and additionally lysed by sonication on ice. An aliquot of 20 μl is taken for the determination of the protein concentration (BCA assay). Subsequently, the lysates are snap frozen and stored at −80° C. until shipment.
To determine compound activity, it is necessary to control for potential cell toxicity of all molecules. Viability of cultures is determined by the MTT assay. This assay allows the measurement of the mitochondrial dehydrogenase activity which reduces yellow MTT to dark blue formazan crystals. Since this reaction is catalyzed in living cells only this assay is used for the determination of cell viability. MTT solution is added to each well in a final concentration of 0.5 mg/ml. After 2 hours, the MTT containing medium is aspired. Cells are lysed in 3% SDS and the formazan crystals are dissolved in isopropanol/HCl. Optical density is measured with a plate-reader at wavelength 570 nm. Cell survival rate is expressed as optical density (OD). Values are calculated as percent of control values.
Cell viability was determined in differentiated SH-SY5Y-TMHT cells by the MTT assay. Test and reference compounds were applied in a concentration range from 0.05 μM to 10 μM and from 0.1 μM to 1 μM, respectively. Upon 6 h of treatment, cell viability was evaluated. […] Statistical significance is indicated by *<0.05, **<0.01, ***<0.001 as determined by One-Way ANOVA. Data are shown from two independent experiments as group mean+/−SEM (n=8). […] Statistical significance is indicated by *<0.05, **<0.01, ***<0.001 as determined by One-Way ANOVA. […] Statistical significance is indicated by *<0.05, **<0.01, ***<0.001 as determined by One-Way ANOVA. […]

[13] = system: Tau phosphorylated at Threonine 231 in SH-SY5Y-TMHT cells; test: Western Blot of Tau phosphorylated at Threonine 231; assay type: cell-based, human; details: for detectable level of pT231 in Tau protein: 10 μM, Western Blot; for phosphorylation of Thr 231 within Tau proteins: FIG. 5
Procedure: as §4
Lysates of treated cells were prepared in Laemmli buffer and 10 μg loaded into each lane of a 10% Nu-PAGE gel (Invitrogen, UK). Samples were run until the coomassie blue dye fromt was within 1 cm of the bottom of the gel. The separated proteins were transferred onto nitrocellulose and blots developed using antibodies specific for total tau (Polyclonal Rabbit Anti-Human Tau, Dako, UK (cat # A0024)) and phopho-Threonine 231 (Tau (Phospho-Thr231) Antibody, Signalway Antibody, USA (cat # 11110)) respectively. In each case the bound antibody was detected using ECL Rabbit IgG, HRP-Linked (from donkey) (GE Healthcare, UK (cat # NA934))

GSK3b, sequence (P49841 whole entry, species assumed): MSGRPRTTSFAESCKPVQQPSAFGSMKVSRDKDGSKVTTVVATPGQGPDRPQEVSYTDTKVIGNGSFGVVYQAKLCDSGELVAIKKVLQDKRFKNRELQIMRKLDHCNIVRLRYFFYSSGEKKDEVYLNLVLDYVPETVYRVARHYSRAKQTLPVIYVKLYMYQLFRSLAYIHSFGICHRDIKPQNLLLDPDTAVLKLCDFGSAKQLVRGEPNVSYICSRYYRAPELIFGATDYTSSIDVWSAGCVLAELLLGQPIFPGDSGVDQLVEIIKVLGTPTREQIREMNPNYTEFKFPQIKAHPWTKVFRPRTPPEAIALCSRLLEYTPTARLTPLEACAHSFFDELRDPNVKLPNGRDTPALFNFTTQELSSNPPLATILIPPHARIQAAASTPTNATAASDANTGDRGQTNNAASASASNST

| Structure (SMILES) | inhibition of CK1g3 [1] | inhibition of GSK3b [2] | inhibition of HGK/MAP4K4 [3] | inhibition of JNK2 [4] | inhibition of KDR/VEGFR2 [5] | inhibition of PKCb2 [6] | inhibition of PIM3 [7] | inhibition of LCK [8] | inhibition of ABL2/ARG [9] | inhibition of c-SRC [10] | inhibition of CDK5/p25 [11] | effect on the cell viability of SH-SY5Y-TMHT cells ([12]; 0.05 μM to 10 μM, vs vehicle control) | protective effect on cell viability, statistical significance ([12]; 10 μM, One-Way ANOVA) | detectable level of pT231 in Tau protein [13] | phosphorylation of Thr 231 within Tau proteins [13] | effect on the cell viability of SH-SY5Y-TMHT cells ([12]; 1 and 0.5 μM) |
| --- | --- | --- | --- | --- | --- | --- | --- | --- | --- | --- | --- | --- | --- | --- | --- | --- |
| Nc1ncc(-c2nc3ccccc3o2)c(-c2ccncc2)n1 [Compound 324, 5-(1,3-benzoxazol-2-yl)-4-(pyridin-4-yl)pyrimidin-2-amine] | lower than 40% | lower than 40% | lower than 40% | lower than 40% | lower than 40% | lower than 40% | lower than 40% | lower than 40% | lower than 40% | lower than 40% | lower than 40% | protective effect on the cell viability of SH-SY5Y-TMHT cells in a dose dependent manner | statistically significant | reduced the detectable level of pT231 | inhibit phosphorylation |  |
| NC(=O)c1c(N)c(C(=O)c2ccc(F)cc2)n2ccccc12 [Compound 987, 2-amino-3-[(4-fluorophenyl)carbonyl]indolizine-1-carboxamide] | lower than 40% | lower than 40% | lower than 40% | lower than 40% | lower than 40% | lower than 40% | lower than 40% | lower than 40% | lower than 40% | lower than 40% | lower than 40% |  |  | reduced the detectable level of pT231 | inhibit phosphorylation | no cytotoxic effect |
